Measurements published in patent US20260041679A1, “METHOD OF TREATING HYPERTENSION WITH THE ALDOSTERONE SYNTHASE INHIBITOR BAXDROSTAT” (CINCOR PHARMA, INC., priority 2022, published 2026).

Assays:
[1] = Single ascending dose study, safety and tolerability (Example 1); format: in vivo; conditions: single dose 1 to 360 mg
Description: Eighty-eight healthy male volunteers completed the first-in-human study of baxdrostat. In part 1 of the trial, subjects received a single oral dose of baxdrostat ranging from 1 to 360 mg in order to evaluate safety, tolerability, PK, and pharmacodynamics (PD). Part 2 evaluated the PK of a single 3 mg intravenous dose of baxdrostat.

[2] = Safety in subjects with varying degrees of renal function (Example 4); format: in vivo, human
Description: Safety was assessed throughout the study based on adverse events, physical examinations, ECG, seated and orthostatic vital signs, weight measurements, and clinical laboratory evaluations

[3] = Study 121: adverse events, safety population
Description: In this study, adverse events of special interest (AESIs) were events of hypotension, low sodium levels or elevated potassium levels that required clinical intervention.

[4] = control eGFR ≥60 mL/min (n = 10)
[5] = moderate to severe renal impairment (n = 11)
[6] = single 10 mg, all renal function groups

CCC(=O)N[C@@H]1CCCc2c(-c3ccc4c(c3)CCC(=O)N4C)cncc21 [baxdrostat, (R)—N-(4-(1-methyl-2-oxo-1,2,3,4-tetrahydroquinolin-6-yl)-5,6,7,8-tetrahydroisoquinolin-8-yl) propionamide]
deaths, serious adverse events, dose-limiting adverse events [1]: no deaths, serious adverse events, or dose-limiting adverse events
side effects [1]: mild and included headache, nasopharyngitis, and diarrhea
Diarrhea, n (%) ([2]; Total (n = 33)): 1 (3.0) n (%)
Metabolic encephalopathy, n (%) ([2]; Total (n = 33)): 1 (3.0) n (%)
Subjects with any TEAEs, n (%) ([2]; Total (n = 33)): 2 (6.1) n (%)
Tremor, n (%) ([2]; Total (n = 33)): 1 (3.0) n (%)
Diarrhea, n (%) [2, 4]: 1 (10.0) n (%)
Metabolic encephalopathy, n (%) [2, 4]: 0 (0.0) n (%)
Subjects with any TEAEs, n (%) [2, 4]: 1 (10.0) n (%)
Tremor, n (%) [2, 4]: 0 (0.0) n (%)
Diarrhea, n (%) ([2]; kidney failure (n = 12)): 0 (0.0) n (%)
Subjects with any TEAEs, n (%) ([2]; kidney failure (n = 12)): 1 (8.3) n (%)
Metabolic encephalopathy, n (%) ([2]; kidney failure (n = 12), considered severe and unrelated to the study drug): 1 (8.3) n (%)
Tremor, n (%) ([2]; kidney failure (n = 12), unrelated to the study drug): 1 (8.3) n (%)
Diarrhea, n (%) [2, 5]: 0 (0.0) n (%)
Metabolic encephalopathy, n (%) [2, 5]: 0 (0.0) n (%)
Subjects with any TEAEs, n (%) [2, 5]: 0 (0.0) n (%)
Tremor, n (%) [2, 5]: 0 (0.0) n (%)
deaths and drug-related treatment-emergent adverse events [2, 6]: no deaths and only one mild drug-related treatment-emergent adverse event (diarrhea)
laboratory values, vital signs, physical examinations, ECGs [2, 6]: no clinically meaningful changes
TESAE, Number of Subjects (Number of Events) ([3]; 0.5 mg): 0 (0) subjects (events)
TESAE: General disorders and administration site conditions ([3]; 0.5 mg): 0 subjects (events)
TESAE: Infections and infestations ([3]; 0.5 mg): 0 subjects (events)
TESAE: Metabolism and nutrition disorders ([3]; 0.5 mg): 0 subjects (events)
TESAE: Musculoskeletal and connective tissue disorders ([3]; 0.5 mg): 0 subjects (events)
TESAE: Nervous system disorders ([3]; 0.5 mg): 0 subjects (events)
TESAE: Renal and urinary disorders ([3]; 0.5 mg): 0 subjects (events)
TESAE: Respiratory, thoracic and mediastinal disorders ([3]; 0.5 mg): 0 subjects (events)
adverse events of special interest (AESIs), patients per arm ([3]; 0.5 mg): 1
percentage of patients who experienced TEAEs ([3]; 0.5 mg): 34.8%
TESAE, Number of Subjects (Number of Events) ([3]; 1 mg): 2 (3) subjects (events)
TESAE: Infections and infestations ([3]; 1 mg): 1 (1) subjects (events)
TESAE: Intervertebral disc degeneration ([3]; 1 mg): 1 (1) subjects (events)
TESAE: Musculoskeletal and connective tissue disorders ([3]; 1 mg): 1 (1) subjects (events)
TESAE: Nephrolithiasis ([3]; 1 mg): 1 (1) subjects (events)
TESAE: Pyelonephritis ([3]; 1 mg): 1 (1) subjects (events)
TESAE: Renal and urinary disorders ([3]; 1 mg): 1 (1) subjects (events)
percentage of patients who experienced TEAEs ([3]; 1 mg): 52.2%
adverse events of special interest (AESIs), patients per arm ([3]; 1 mg arm): 5
TESAE, Number of Subjects (Number of Events) ([3]; 2 mg): 6 (12) subjects (events)
TESAE: Acute kidney injury ([3]; 2 mg): 1 (1) subjects (events)
TESAE: Acute respiratory failure ([3]; 2 mg): 1 (1) subjects (events)
TESAE: Arthralgia ([3]; 2 mg): 1 (1) subjects (events)
TESAE: Cellulitis ([3]; 2 mg): 1 (1) subjects (events)
TESAE: Dehydration ([3]; 2 mg): 1 (1) subjects (events)
TESAE: Dizziness ([3]; 2 mg): 1 (1) subjects (events)
TESAE: Hyperglycaemia ([3]; 2 mg): 1 (1) subjects (events)
TESAE: Hyperkalemia ([3]; 2 mg): 1 (1) subjects (events)
TESAE: Hyponatraemia ([3]; 2 mg): 1 (1) subjects (events)
TESAE: Infections and infestations ([3]; 2 mg): 2 (2) subjects (events)
TESAE: Metabolism and nutrition disorders ([3]; 2 mg): 1 (4) subjects (events)
TESAE: Musculoskeletal and connective tissue disorders ([3]; 2 mg): 1 (1) subjects (events)
TESAE: Nervous system disorders ([3]; 2 mg): 2 (2) subjects (events)
TESAE: Renal and urinary disorders ([3]; 2 mg): 1 (1) subjects (events)
TESAE: Respiratory failure ([3]; 2 mg): 1 (1) subjects (events)
TESAE: Respiratory, thoracic and mediastinal disorders ([3]; 2 mg): 2 (2) subjects (events)
TESAE: Syncope ([3]; 2 mg): 1 (1) subjects (events)
TESAE: Urinary tract infection ([3]; 2 mg): 1 (1) subjects (events)
percentage of patients who experienced TEAEs ([3]; 2 mg): 47.8%
adverse events of special interest (AESIs), patients per arm ([3]; 2 mg arm): 2
adrenal insufficiency ([3]; Study 121): no reported cases of adrenal insufficiency
deaths and relatedness of SAEs ([3]; Study 121): no deaths in the study and all SAEs were assessed by the investigators to be unrelated to baxdrostat
tolerability ([3]; once daily for 12 weeks): well tolerated
